Test results from patent US20250019373A1, “ARYL OR HETEROARYL DERIVATIVE, AND PHARMACEUTICAL COMPOSITION COMPRISING SAME AS ACTIVE INGREDIENT FOR PREVENTION OR TREATMENT OF KINASE-RELATED DISEASES” (VORONOI INC., priority 2021, published 2025).

tested on: HT-29 cells; assay: Cell necrosis inhibitory activity under necroptosis-inducing conditions (TNF-α, Z-VAD-FMK, LCL161) in HT-29 cells, Cell Titer-Glo; type: cell-based; settings: Homo sapiens, 100 ng/mL TNF-α + 25 μM Z-VAD-FMK + Smac mimetic LCL161, 24 hours, cell viability
Method in brief: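 HT-29 cells seeded 24 h, then necroptosis induced with 100 ng/mL TNF-α, 25 μM Z-VAD-FMK and 10 μM LCL161 for 10 min before compound (11 points, 3-fold, top 0.1 or 1 μM; 0.05% DMSO). After 24 h, viability by CellTiter-Glo luminescence relative to untreated controls gave EC50 (nM).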

Point of comparison: `Cc1ccc(-c2ccc3ncnn3c2)cc1NC(=O)N1OCC[C@H]1c1ccccc1` [Example 101, (S)-N-(5-([1,2,4]triazolo[1,5-a]pyridin-6-yl)-2-methylphenyl)-3-phenylisoxazolidine-2-carboxamide], EC50 6.2 nM. Against it:
- Nc1nc2ccc(-c3ccc(F)c(NC(=O)N4OCC[C@H]4c4ccccc4)c3)cn2n1 [Example 96, (S)-N-(5-(2-amino-[1,2,4]triazolo[1,5-a]pyridin-6-yl)-2-fluorophenyl)-3-phenylisoxazolidine-2-carboxamide] — 3.3-fold lower, 1.9 nM
- Nc1nc2ccc(-c3ccc(Cl)c(NC(=O)N4OCC[C@H]4c4ccccc4)c3)cn2n1 [Example 97, (S)-N-(5-(2-amino-[1,2,4]triazolo[1,5-a]pyridin-6-yl)-2-chlorophenyl)-3-phenylisoxazolidine-2-carboxamide] — 5.6-fold lower, 1.1 nM
- Cc1ccc(-c2ccc3nc(N)sc3n2)cc1NC(=O)N1OCC[C@H]1c1ccccc1 [Example 98, (S)-N-(5-(2-aminothiazolo[5,4-b]pyridin-5-yl)-2-methylphenyl)-3-phenylisoxazolidine-2-carboxamide] — 21-fold lower, 0.3 nM
- COc1ncc(-c2ccc3c(N)ncnn23)cc1NC(=O)N1OCC[C@H]1c1ccccc1 [Example 99, (S)-N-(5-(4-aminopyrrolo[2,1-f][1,2,4]triazin-7-yl)-2-methoxypyridin-3-yl)-3-phenylisoxazolidine-2-carboxamide] — within 1.5-fold, 8.2 nM
- Cc1ccc(-c2ccc3c(N)ncnn23)cc1NC(=O)N1OCC[C@H]1c1ccccc1 [Example 100, (S)-N-(5-(4-aminopyrrolo[2,1-f][1,2,4]triazin-7-yl)-2-methylphenyl)-3-phenylisoxazolidine-2-carboxamide] — within 1.5-fold, 4.6 nM
- Cc1ccc(-c2ccn3ncnc3c2)cc1NC(=O)N1OCC[C@H]1c1ccccc1 [Example 102, (S)-N-(5-([1,2,4]triazolo[1,5-a]pyridin-7-yl)-2-methylphenyl)-3-phenylisoxazolidine-2-carboxamide] — 6.9-fold lower, 0.9 nM
- COc1ccc(-c2ccn3nc(N)nc3c2)c(F)c1NC(=O)N1OCC[C@H]1c1ccccc1 [Example 103, (S)-N-(3-(2-amino-[1,2,4]triazolo[1,5-a]pyridin-7-yl)-2-fluoro-6-methoxyphenyl)-3-phenylisoxazolidine-2-carboxamide] — 2.5-fold higher, 15.6 nM
- Nc1nc2ccc(-c3ccc(Cl)c(NC(=O)N4OCC[C@H]4c4ccccc4)c3F)cn2n1 [Example 105, (S)-N-(3-(2-amino-[1,2,4]triazolo[1,5-a]pyridin-6-yl)-6-chloro-2-fluorophenyl)-3-phenylisoxazolidine-2-carboxamide] — 7.1-fold higher, 43.8 nM
- Cc1ccc(-c2ccc3nnc(C)n3n2)cc1NC(=O)N1OCC[C@H]1c1ccccc1 [Example 107, (S)-N-(2-methyl-5-(3-methyl-[1,2,4]triazolo[4,3-b]pyridazin-6-yl)phenyl)-3-phenylisoxazolidine-2-carboxamide] — 3.7-fold higher, 23.2 nM
- Cc1ccc(-c2ccc3nnc(C(F)(F)F)n3n2)cc1NC(=O)N1OCC[C@H]1c1ccccc1 [Example 108, (S)-N-(2-methyl-5-(3-(trifluoromethyl)-[1,2,4]triazolo[4,3-b]pyridazin-6-yl)phenyl)-3-phenylisoxazolidine-2-carboxamide] — 4.8-fold higher, 29.8 nM
- Cc1ccc(-c2ccc3nc(N)oc3c2)cc1NC(=O)N1OCC[C@H]1c1ccccc1 [Example 109, (S)-N-(5-(2-aminobenzo[d]oxazol-6-yl)-2-methylphenyl)-3-phenylisoxazolidine-2-carboxamide] — 6.2-fold lower, 1 nM
- Cc1ccc(-c2ccc3nccn3n2)cc1NC(=O)N1OCC[C@H]1c1ccccc1 [Example 112, (S)-N-(5-(imidazo[1,2-b]pyridazin-6-yl)-2-methylphenyl)-3-phenylisoxazolidine-2-carboxamide] — 1.9-fold lower, 3.3 nM
- Cc1ccc(-c2ccc3nccn3c2)cc1NC(=O)N1OCC[C@H]1c1ccccc1 [Example 113, (S)-N-(5-(imidazo[1,2-a]pyridin-6-yl)-2-methylphenyl)-3-phenylisoxazolidine-2-carboxamide] — 2.6-fold lower, 2.4 nM
- Cc1ccc(-c2ccc3ncc(C#N)n3c2)cc1NC(=O)N1OCC[C@H]1c1ccccc1 [Example 114, (S)-N-(5-(3-cyanoimidazo[1,2-a]pyridin-6-yl)-2-methylphenyl)-3-phenylisoxazolidine-2-carboxamide] — 3.3-fold lower, 1.9 nM
- Cc1ccc(-c2ccc3ncc(C#CC(C)(C)O)n3c2)cc1NC(=O)N1OCC[C@H]1c1ccccc1 [Example 115, (S)-N-(5-(3-(3-hydroxy-3-methylbut-1-yn-1-yl)imidazo[1,2-a]pyridin-6-yl)-2-methylphenyl)-3-phenylisoxazolidine-2-carboxamide] — 3.6-fold lower, 1.7 nM
- C#Cc1cnc2ccc(-c3ccc(C)c(NC(=O)N4OCC[C@H]4c4ccccc4)c3)cn12 [Example 116, (S)-N-(5-(3-ethynylimidazo[1,2-a]pyridin-6-yl)-2-methylphenyl)-3-phenylisoxazolidine-2-carboxamide] — 6.2-fold lower, 1 nM
- Cc1ccc(-c2ccc3ncc(C#CC(C)(C)O)n3n2)cc1NC(=O)N1OCC[C@H]1c1ccccc1 [Example 117, (S)-N-(5-(3-(3-hydroxy-3-methylbut-1-yn-1-yl)imidazo[1,2-b]pyridazin-6-yl)-2-methylphenyl)-3-phenylisoxazolidine-2-carboxamide] — 2.6-fold lower, 2.4 nM
- Cc1ccc(-c2ccc3ncc(C#N)n3n2)cc1NC(=O)N1OCC[C@H]1c1ccccc1 [Example 118, (S)-N-(5-(3-cyanoimidazo[1,2-b]pyridazin-6-yl)-2-methylphenyl)-3-phenylisoxazolidine-2-carboxamide] — within 1.5-fold, 4.3 nM
- Cc1ncc(-c2ccc3c(N)ncnn23)cc1NC(=O)N1OCC[C@H]1c1ccccc1 [Example 120, (S)-N-(5-(4-aminopyrrolo[2,1-f][1,2,4]triazin-7-yl)-2-methylpyridin-3-yl)-3-phenylisoxazolidine-2-carboxamide] — 6.2-fold lower, 1 nM
- Cc1ncc(-c2csc3c(N)ncnc23)cc1NC(=O)N1OCC[C@H]1c1ccccc1 [Example 121, (S)-N-(5-(4-aminothieno[3,2-d]pyrimidine-7-y1)-2-methylpyridin-3-yl)-3-phenylisoxazolidine-2-carboxamide] — 1.9-fold higher, 11.7 nM
- Cc1ccc(-c2csc3c(N)ncnc23)cc1NC(=O)N1OCC[C@H]1c1ccccc1 [Example 122, (S)-N-(5-(4-aminothieno[3,2-d]pyrimidine-7-yl)-2-methylphenyl)-3-phenylisoxazolidine-2-carboxamide] — 3.3-fold higher, 20.4 nM
- Nc1nc2cc(-c3ccc(F)c(NC(=O)N4OCC[C@H]4c4ccccc4)c3)ccn2n1 [Example 123, (S)-N-(5-(2-amino-[1,2,4]triazolo[1,5-a]pyridin-7-yl)-2-fluorophenyl)-3-phenylisoxazolidine-2-carboxamide] — 21-fold lower, 0.3 nM
- Nc1nc2cc(-c3ccc(Cl)c(NC(=O)N4OCC[C@H]4c4ccccc4)c3)ccn2n1 [Example 124, (S)-N-(5-(2-amino-[1,2,4]triazolo[1,5-a]pyridin-7-yl)-2-chlorophenyl)-3-phenylisoxazolidine-2-carboxamide] — 31-fold lower, 0.2 nM
- C#Cc1cnc2ccc(-c3ccc(C)c(NC(=O)N4OCC[C@H]4c4ccccc4)c3)nn12 [Example 125, (S)-N-(5-(3-ethynylimidazo[1,2-b]pyridazin-6-yl)-2-methylphenyl)-3-phenylisoxazolidine-2-carboxamide] — 4.4-fold lower, 1.4 nM
